Assay results as given in patent publication US10537650B2, “Molecular probes for multimodality imaging and tracking of stem cells” (University of Massachusetts, priority 2012, dated 2020).

Columns and labels:
Type in all cases: in vivo, mouse
[1] = SPECT/CT, whole body count and optical imaging of ^111In-MTTI-157 labeled TC1 mES cells in NU/NU mice; conditions: for distribution of radioactivity (SPECT/CT): NU/NU mice
Experimental: All animal experiments were approved by the Institutional Animal Care and Use Committee of the university. Male NU/NU mice from Charles River Laboratories International, Inc. (Wilmington, Mass.), about 8 week-old, were used here, and fed a white chow (AIN-93G Purified Diet, Harlan, Madison, Wis.) and water, and housed under standard conditions. TC1 wild type mES cells were labeled with ^111In-MTTI-157 at the dye concentration of 20 μM with about 50 μCi/ml per labeling mix according to the method described before. Then about 4-5 μCi of ^111In-MTTI-157 labeled cells in 0.1 ml PBS (5×10^6 per mouse) was injected into NU/NU mice by tail vein or delivered subcutaneously on the left shoulder. The mice were followed by SPECT/CT imaging (NanoSPECT/CT, Bioscan, Inc., Washington, D.C.) with scans at 1 h and 19 h for injection subcutaneously, and at 30 min and 18 h for injection by tail vein.
The whole body radioactivity was measured through day 9 after injection by placing the mouse in a dose calibrator (Capintec).
(§1) The SPECT image parameters were 1.0 mm/pixel, 256×256 frame size and 60 sec per projection with 24 projections. Acquisition time was approximately 30 min. During imaging, the animal was anesthetized with 1-2% isoflurane in 1.5 liters/min oxygen. A CT scan was acquired prior to the SPECT scan and was performed at standard resolution, using a 45 kVp voltage and 500 milliseconds exposure time. The CT and SPECT reconstruction was performed using InVivoScope 1.43 software (Bioscan, Washington, D.C.).
Optical images (Pearl Imager, LiCor Biosciences, Lincoln, Nebr.) were acquired on day 0 and at intervals through day 28. After imaging, the lungs, liver, spleen and teratoma were removed, imaged and then imbedded in OCT in preparation for frozen section fluorescence microscopy. Slides were counter stained with the general membrane stain D275 (Invitrogen, Em: 484 nm, Ex: 501 nm). Slides were viewed in an Olympus IX 70 Inverted Light Microscope (Olympus America, Inc., NY) using filters for FITC (for D275) and Cy5 (for MTTI-157). […]

[2] = SPECT/CT, whole body count and optical imaging of ^111In-MTTI-157 labeled BL/6 mES cells in NU/NU mice
Experimental: BL/6 wild type mouse embryonic stem cells (mES) were labeled with ^111In-MTTI-157 at the concentration of 12 μM and about 250 μCi/ml according to the method described before. The labeled cells (5 in 0.1 ml PBS (5×10^6 per mouse) were injected into NU/NU mice by tail vein or subcutaneously on the left shoulder. SPECT/CT imaging was done at 30 min, 21 h and day 4 after injection subcutaneously, and at 1 h, 22 h and day 4 when injected by tail vein. Optical imaging was performed through day 11 for the subcutaneous delivery of cells. The whole body radioactivity was measured through day 7 by placing the animal in a dose calibrator.
The lungs, liver, and spleen were removed from the mouse injected by tail vein when sacrificed on day 19, and the teratoma was removed from mouse injected subcutaneously on the left shoulder when sacrificed on day 15. Excised organs and teratoma were imaged on the Li-Cor Biosciences Pearl Imager, and then set in OCT for frozen sections. The frozen sections were stained with the general membrane fluorescent stain D275 (Invitrogen, Em: 484 nm, Ex: 501 nm) and detected on an Olympus IX 70 Inverted Light Microscope (Olympus America, Inc., NY) using a FITC filter for D275 and a Cy5 filter for MTTI-157. D275 is a cell membrane stain and was used here to stain the field of view. The frozen sections were also stained with hematoxylin-eosin (H&E) for standard microscopy.

[3] = SPECT/CT, whole body activity and optical imaging of ^111In-MTTI-157 labeled LS174T cells in SKH-1 mice
Experimental: ^111In-MTTI-157 labeled LS174T cells were administered to mice to follow their fate and that of the labels they carried. All animal experiments were approved by the Institutional Animal Care and Use Committee of the university. Male SKH-1 mice about 8 week-old (Charles River Laboratories, Inc., Wilmington, Mass.) were housed under standard conditions and fed white chow (AIN-93G Purified Diet, Harlan, Madison, Wis.). LS174T cells were prepared labeled with ^111In-MTTI-157 as above, and about 5×10^6 cells with 10-12 μCi was injected by tail vein per mouse.
as §1, with “The mice were followed by SPECT/CT imaging (NanoSPECT/CT, Bioscan, Inc., Washington, D.C.) with scans at 30 min, 1 h, 24 h, 72 h, 120 h and 168 h following injection. The SPECT” for “The SPECT”, “in 1.5 L/min oxygen. A” for “in 1.5 liters/min oxygen. A”
Optical images (Pearl Imager, LiCor Biosciences, Lincoln, Nebr.) were acquired on day 0 and at intervals through day 28. To facilitate detection of signal at depth, such as in the lungs, some animals were killed, the chest and abdomen opened to expose internal organs, and then imaged. Untreated mice served as control. After imaging, the lungs, liver and spleen were removed, imaged and then imbedded in OCT in preparation for frozen section fluorescence microscopy. Slides were counter stained with the general membrane stain D275 (Invitrogen). Slides were viewed in an Olympus IX 70 Inverted Light Microscope (Olympus America, Inc., NY) using filters for FITC (for D275) and Cy5 (for MTTI-157).

CCCCCCCCCCCCCCCCCCCCCCN1C(=CC=CC=CC2=[N+](CCCCCCCCCCCCCCCCCCCCCC)c3ccc(CNC(=O)CN4CCN(CC(=O)[O-])CCN(CC(=O)[O-])CCN(CC(=O)[O-])CC4)cc3C2(C)C)C(C)(C)c2ccccc21.[111In+3].[I-] [^111In-MTTI-157]
distribution of radioactivity (SPECT/CT) ([1]; labeled TC1 mES cells injected by tail vein): accumulated in the lungs at 1 h after injection and then distributed to liver and spleen by 19 h
distribution of radioactivity (SPECT/CT) ([1]; labeled TC1 mES cells injected subcutaneously on the left shoulder): retained in the shoulder and did not distribution to other tissue through 18 h
whole body radioactivity corrected for decay ([1]; tail vein and subcutaneous injection of labeled TC1 mES cells, dose calibrator): retained in the body through day 9
distribution of radioactivity (SPECT/CT) ([2]; labeled BL/6 mES cells by tail vein, NU/NU mice): accumulated in the lungs by 1 h following injection which then distributed to the liver and spleen by 22 h
distribution of radioactivity (SPECT/CT) ([2]; labeled BL/6 mES cells subcutaneously on left shoulder, through day 4): retained in the shoulder without distribution to other tissue
whole body radioactivity ([2]; labeled BL/6 mES cells, measured through day 7 in dose calibrator): unchanged from 2 h to 21 h after injection, but then decreases slightly at 91 h and remain at this level through 165 h
whole body ^111In retention (decay corrected) ([3]; SKH-1 mice, labeled LS174T cells by tail vein): retention out thru Day 14
loss of whole body activity (half-life corrected) ([3]; from day 0 to day 10, dose calibrator, SKH-1 mice): about 23%
distribution of radioactivity (SPECT/CT) ([3]; labeled LS174T cells by tail vein, SKH-1 mice, earliest scan 30 min and 1 h, then within a day): restricted to the lungs and then seen to redistribute within a day to the liver and spleen
label stability in vivo ([3]; monitoring of cells out through 28 days in vivo): no evidence of label instability
